# Tested on: Acinetobacter baumannii ATCC17961
# Assay: Antimicrobial susceptibility testing: 90% growth inhibitory concentration (IC90) determination
# Type: cell-based
# Settings: Acinetobacter baumannii, ATCC17961, 16 h, 90% growth inhibitory concentration against Acinetobacter baumannii ATCC17961, Iso-Sensitest broth, OD 600 nm over 16 h; read-out: ATCC 17961 IC90
# Summary of the method: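 Twofold serial dilutions (e.g. 10 to 0.0195 μM final) in Iso-Sensitest broth inoculated at ~5×10^5 CFU/mL, incubated at 35±2° C. OD600 read every minute for 16 h; IC90 is the concentration inhibiting 90% of growth during logarithmic phase.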
row,SMILES,IC90
1,"Cn1c(-c2cn(-c3ccc4[nH]c(CCCO)cc4n3)nc2C(F)(F)F)cnc1C(=O)Nc1ccc(C(=O)N2CCN(C(=O)C3CC[N+](CCCN)(CC(=O)O)CC3)CC2)c(Cl)c1 (stereo not drawn) [Example 98, cis-2-[1-(3-aminopropyl)-4-[4-[2-chloro-4-[[5-[1-[2-(3-hydroxypropyl)-1H-pyrrolo[3,2-b]pyridin-5-yl]-3-(trifluoromethyl)pyrazol-4-yl]-1-methyl-imidazole-2-carbonyl]amino]benzoyl]piperazine-1-carbonyl]piperidin-1-ium-1-yl]acetic acid;chloride]",0.387 µM
2,"Cn1c(-c2cn(-c3ccc4[nH]c(CCC(N)=O)cc4n3)nc2C(F)(F)F)cnc1C(=O)Nc1ccc(C(=O)N2CCN(C(=O)[C@H]3CC[N@@+](CCCN)(CC(=O)O)CC3)CC2)c(Cl)c1 [Example 99, cis-2-[4-[4-[4-[[5-[1-[2-(3-amino-3-oxo-propyl)-1H-pyrrolo[3,2-b]pyridin-5-yl]-3-(trifluoromethyl)pyrazol-4-yl]-1-methyl-imidazole-2-carbonyl]amino]-2-chloro-benzoyl]piperazine-1-carbonyl]-1-(3-aminopropyl)piperidin-1-ium-1-yl]acetic acid;2,2,2-trifluoroacetate]",0.361 µM
3,"Cn1c(-c2cn(-c3ccc(N4CCOCC4)cc3F)nc2C(F)(F)F)cnc1C(=O)Nc1ccc(C(=O)N2CCN(C(=O)[C@H]3CC[N@@+](CCCN)(CC(=O)O)CC3)CC2)c(Cl)c1 [Example 100, cis-2-[1-(3-aminopropyl)-4-[4-[2-chloro-4-[[5-[1-(2-fluoro-4-morpholino-phenyl)-3-(trifluoromethyl)pyrazol-4-yl]-1-methyl-imidazole-2-carbonyl]amino]benzoyl]piperazine-1-carbonyl]piperidin-1-ium-1-yl]acetic acid;formate]",0.195 µM
4,"Cc1cc(NC(=O)c2ncc(-c3cn(-c4ccc5[nH]c([C@H](C)O)cc5n4)nc3C(F)(F)F)n2C)ccc1C(=O)N1CCN(C(=O)[C@H]2CC[N@@+](CCCN)(CC(=O)O)CC2)CC1 [Example 101, cis-2-[1-(3-aminopropyl)-4-[4-[4-[[5-[1-[2-[(1S)-1-hydroxyethyl]-1H-pyrrolo[3,2-b]pyridin-5-yl]-3-(trifluoromethyl)pyrazol-4-yl]-1-methyl-imidazole-2-carbonyl]amino]-2-methyl-benzoyl]piperazine-1-carbonyl]piperidin-1-ium-1-yl]acetic acid;chloride]",0.338 µM
5,"Cn1c(-c2cn(-c3ccc4[nH]c(C(CO)CO)cc4n3)nc2C(F)(F)F)cnc1C(=O)Nc1ccc(C(=O)N2CCN(C(=O)[C@H]3CC[N@@+](CCCN)(CC(=O)O)CC3)CC2)c(Cl)c1 [Example 102, cis-2-[1-(3-aminopropyl)-4-[4-[2-chloro-4-[[5-[1-[2-[2-hydroxy-1-(hydroxymethyl)ethyl]-1H-pyrrolo[3,2-b]pyridin-5-yl]-3-(trifluoromethyl)pyrazol-4-yl]-1-methyl-imidazole-2-carbonyl]amino]benzoyl]piperazine-1-carbonyl]piperidin-1-ium-1-yl]acetic acid;formate]",0.445 µM
6,"Cn1c(-c2cn(-c3ccc4c(cc(C(=O)N5CCOCC5)n4C)n3)nc2C(F)(F)F)cnc1C(=O)Nc1ccc(C(=O)N2CCN(C(=O)[C@H]3CC[N@@+](CCCN)(CC(=O)O)CC3)CC2)c(Cl)c1 [Example 103, cis-2-[1-(3-aminopropyl)-4-[4-[2-chloro-4-[[1-methyl-5-[1-[1-methyl-2-(morpholine-4-carbonyl)pyrrolo[3,2-b]pyridin-5-yl]-3-(trifluoromethyl)pyrazol-4-yl]imidazole-2-carbonyl]amino]benzoyl]piperazine-1-carbonyl]piperidin-1-ium-1-yl]acetic acid;formate]",0.604 µM
7,"Cn1c(-c2cn(-c3ccc4c(cc(C(=O)NCCO)n4C)n3)nc2C(F)(F)F)cnc1C(=O)Nc1ccc(C(=O)N2CCN(C(=O)[C@H]3CC[N@@+](CCCN)(CC(=O)O)CC3)CC2)c(Cl)c1 [Example 104, cis-2-[1-(3-aminopropyl)-4-[4-[2-chloro-4-[[5-[1-[2-(2-hydroxyethylcarbamoyl)-1-methyl-pyrrolo[3,2-b]pyridin-5-yl]-3-(trifluoromethyl)pyrazol-4-yl]-1-methyl-imidazole-2-carbonyl]amino]benzoyl]piperazine-1-carbonyl]piperidin-1-ium-1-yl]acetic acid;chloride]",0.783 µM
8,"Cn1c(-c2cn(-c3ccc4[nH]c([C@H](O)CO)cc4n3)nc2C(F)(F)F)cnc1C(=O)Nc1ccc(C(=O)N2CCN(C(=O)[C@H]3CC[N@+](CC(=O)O)(CC4CNC4)CC3)CC2)c(Cl)c1 [Example 105, cis-2-[1-(azetidin-3-ylmethyl)-4-[4-[2-chloro-4-[[5-[1-[2-[(1S)-1,2-dihydroxyethyl]-1H-pyrrolo[3,2-b]pyridin-5-yl]-3-(trifluoromethyl)pyrazol-4-yl]-1-methyl-imidazole-2-carbonyl]amino]benzoyl]piperazine-1-carbonyl]piperidin-1-ium-1-yl]acetic acid;2,2,2-trifluoroacetate]",0.525 µM
9,"Cn1c(-c2cn(-c3ccc4[nH]c([C@@H](O)CO)cc4n3)nc2C(F)(F)F)cnc1C(=O)Nc1ccc(C(=O)N2CCN(C(=O)[C@H]3CC[N@+](CC(=O)O)(CC4CNC4)CC3)CC2)c(Cl)c1 [Example 106, cis-2-[1-(azetidin-3-ylmethyl)-4-[4-[2-chloro-4-[[5-[1-[2-[(1R)-1,2-dihydroxyethyl]-1H-pyrrolo[3,2-b]pyridin-5-yl]-3-(trifluoromethyl)pyrazol-4-yl]-1-methyl-imidazole-2-carbonyl]amino]benzoyl]piperazine-1-carbonyl]piperidin-1-ium-1-yl]acetic acid;chloride]",0.611 µM
10,"CNc1ccc(-n2cc(-c3cnc(C(=O)Nc4ccc(C(=O)N5CCN(C(=O)[C@H]6CC[N@+](CC(=O)O)(CC7CNC7)CC6)CC5)c(C)c4)n3C)c(C(F)(F)F)n2)c(F)c1 [Example 107, cis-2-[1-(azetidin-3-ylmethyl)-4-[4-[4-[[5-[1-[2-fluoro-4-(methylamino)phenyl]-3-(trifluoromethyl)pyrazol-4-yl]-1-methyl-imidazole-2-carbonyl]amino]-2-methyl-benzoyl]piperazine-1-carbonyl]piperidin-1-ium-1-yl]acetic acid;2,2,2-trifluoroacetate]",0.175 µM
11,"CNc1ccc(-n2cc(-c3cnc(C(=O)Nc4ccc(C(=O)N5CCN(C(=O)[C@H]6CC[N@+](CC(=O)O)(CC7CNC7)CC6)CC5)c(F)c4)n3C)c(C(F)(F)F)n2)c(F)c1 [Example 108, cis-2-[1-(azetidin-3-ylmethyl)-4-[4-[2-fluoro-4-[[5-[1-[2-fluoro-4-(methylamino)phenyl]-3-(trifluoromethyl)pyrazol-4-yl]-1-methyl-imidazole-2-carbonyl]amino]benzoyl]piperazine-1-carbonyl]piperidin-1-ium-1-yl]acetic acid; 2,2,2-trifluoroacetate]",0.0587 µM
12,"CN(C)c1ccc(-n2cc(-c3cnc(C(=O)Nc4ccc(C(=O)N5CCN(C(=O)[C@H]6CC[N@+](CC(=O)O)(CC7CNC7)CC6)CC5)c(F)c4)n3C)c(C(F)(F)F)n2)c(F)c1 [Example 109, cis-2-[1-(azetidin-3-ylmethyl)-4-[4-[4-[[5-[1-[4-(dimethylamino)-2-fluoro-phenyl]-3-(trifluoromethyl)pyrazol-4-yl]-1-methyl-imidazole-2-carbonyl]amino]-2-fluoro-benzoyl]piperazine-1-carbonyl]piperidin-1-ium-1-yl]acetic acid; 2,2,2-trifluoroacetate]",0.213 µM

# Reference: patent US20250179066A1, “ZWITTERIONIC ANTIBACTERIAL COMPOUNDS” (Hoffmann-La Roche Inc., priority 2022, published 2025)
